Data published in US10206937B2, “Boronic acid derivatives and therapeutic uses thereof” (Qpex Biopharma, Inc., priority 2014, dated 2019).
Converted amounts (≈) assume the structure as drawn. Read-outs that look alike come from different tables or passages of the source.

Tests used:
[1] = test system: KP1064 (KPC-2, SHV-11, TEM-1); assay: Carbapenem potentiation against clinical isolate (MIC); type: cell-based, Klebsiella pneumoniae; settings: for Carbapenem MIC Alone: antibiotic alone
[2] = test system: KP1081 (NDM-1, TEM-1, SHV-11, CMY-6, CTX-M-15); assay: as above; type: cell-based; settings: for Carbapenem MIC Alone: antibiotic alone
KP1059 (VIM-1, SHV-11) = assay: Biapenem potentiation against clinical isolate (MIC); type: cell-based; settings: Klebsiella pneumoniae, biapenem alone
Source text: The results are present in Table 9.

[3] = test system: KP1087 (KPC-2, CTX-M-15, SHV-11, TEM-1); assay: Carbapenem potentiation against clinical isolate (MIC); type: cell-based; settings: for Carbapenem MIC Alone: antibiotic alone
[4] = test system: KP1086 (TEM, SHV, CTX-M-15, OXA-48); assay: as above; type: cell-based, Klebsiella pneumoniae; settings: for Carbapenem MIC Alone: antibiotic alone
KP1054 (VIM-1, SHV-11) = assay: as above; type: cell-based, Klebsiella pneumoniae; settings: for Carbapenem MIC Alone: antibiotic alone
AB1144 (NDM-1) = assay: as above; type: cell-based, Acinetobacter baumannii
[5] = test system: EC1064 (NDM-1, CMY-6, CTX-M-15); assay: as above; type: cell-based, Escherichia coli; settings: for Carbapenem MIC Alone: antibiotic alone
[6] = test system: KP1004 (KPC-2, TEM-1, SHV-11); assay: as above; type: cell-based, Klebsiella pneumoniae; settings: for Carbapenem MIC Alone: antibiotic alone
[7] = test system: KP1084 (KPC-3, SHV-11, TEM-1); assay: as above; type: cell-based, Klebsiella pneumoniae; settings: for Carbapenem MIC Alone: antibiotic alone
[8] = test system: KP1074 (KPC-3, SHV-11, TEM); assay: as above; type: cell-based, Klebsiella pneumoniae; settings: for Carbapenem MIC Alone: antibiotic alone
KP1014 (VIM-1) = assay: as above; type: cell-based, Klebsiella pneumoniae; settings: for Carbapenem MIC Alone: antibiotic alone
EA1019 (SHV-5, VIM-1) = assay: as above; type: cell-based, Enterobacter aerogenes
ECM6703 (pUCP24-NDM-1) = type: cell-based, E. coli
ECM6704 (pUCP24) = assay: microbe, parasite or virus in culture; type: cell-based, E. coli; settings: Escherichia coli, read-out: Imipenem MIC Alone
ECM6711 (pUCP24-VIM-1) = type: cell-based, E. coli
[9] = test system: strains of Enterobacteriaceae overexpressing various carbapenemases (class A and B); assay: organism not typed; type: cell-based
Source text: Several strains simultaneously expressing both class A and class B carbapenemases, which were constructed using conjugation, were also included in the panel.

[10] = Klebsiella pneumoniae, biapenem alone

Structure (SMILES): C[C@@H](O)[C@H]1C(=O)N2C(C(=O)[O-])=C(SC3Cn4cnc[n+]4C3)[C@H](C)[C@H]12 (stereo partly drawn) [Biapenem]
- MIC [1, 10]: > 10 µg/mL
- Carbapenem MIC Alone [1]: Z (MIC of greater than 10 μg/mL)
- MIC [2, 10]: > 10 µg/mL
- Carbapenem MIC Alone [2]: Z (MIC of greater than 10 μg/mL)
- MIC (KP1059 (VIM-1, SHV-11)): > 10 µg/mL
- MIC [3, 10]: > 10 µg/mL
- Carbapenem MIC Alone [3]: Z (MIC of greater than 10 μg/mL)
- MIC [4, 10]: > 10 µg/mL
- Carbapenem MIC Alone [4]: Z (MIC of greater than 10 μg/mL)
- MIC (KP1054 (VIM-1, SHV-11); [10]): > 10 µg/mL
- Carbapenem MIC Alone (KP1054 (VIM-1, SHV-11)): Z (MIC of greater than 10 μg/mL)
- Carbapenem MIC Alone (AB1144 (NDM-1); AB1144, antibiotic alone): Y (MIC of 1 μg/mL to 10 μg/mL)
- MIC (AB1144 (NDM-1); Acinetobacter baumannii, AB1144, biapenem alone): > 10 µg/mL
- MIC ([5]; Escherichia coli, biapenem alone): > 10 µg/mL
- Carbapenem MIC Alone [5]: Z (MIC of greater than 10 μg/mL)
- MIC [6, 10]: > 10 µg/mL
- Carbapenem MIC Alone [6]: Y (MIC of 1 μg/mL to 10 μg/mL)
- MIC [7, 10]: > 10 µg/mL
- Carbapenem MIC Alone [7]: Z (MIC of greater than 10 μg/mL)
- MIC [8, 10]: > 10 µg/mL
- Carbapenem MIC Alone [8]: Z (MIC of greater than 10 μg/mL)
- MIC (KP1014 (VIM-1); [10]): > 10 µg/mL
- Carbapenem MIC Alone (KP1014 (VIM-1)): Z (MIC of greater than 10 μg/mL)
- Carbapenem MIC Alone (EA1019 (SHV-5, VIM-1); EA1019, antibiotic alone): Z (MIC of greater than 10 μg/mL)
- MIC (EA1019 (SHV-5, VIM-1); Klebsiella aerogenes, EA1019, biapenem alone): > 10 µg/mL

Structure (SMILES): C[C@@H](O)[C@H]1C(=O)N2C(C(=O)O)=C(SCCN=CN)C[C@H]12 [Imipenem]
- Carbapenem MIC Alone [1]: Z (MIC of greater than 10 μg/mL)
- Imipenem MIC Alone (ECM6703 (pUCP24-NDM-1)): Y (key: X: MIC of less than 1.0 μg/mL; Y: MIC of 1.0 μ/mL or above)
- Carbapenem MIC Alone [2]: Z (MIC of greater than 10 μg/mL)
- MIC (ECM6704 (pUCP24)): < 1 µg/mL
- Carbapenem MIC Alone [3]: Y (MIC of 1 μg/mL to 10 μg/mL)
- Carbapenem MIC Alone [4]: Z (MIC of greater than 10 μg/mL)
- Carbapenem MIC Alone (KP1054 (VIM-1, SHV-11)): Y (MIC of 1 μg/mL to 10 μg/mL)
- Carbapenem MIC Alone (AB1144 (NDM-1)): Z (key: X: MIC of less than 1 μg/mL; Y: MIC of 1 μg/mL to 10 μg/mL; Z: MIC of greater than 10 μg/mL)
- Carbapenem MIC Alone [5]: Z (MIC of greater than 10 μg/mL)
- Imipenem MIC Alone (ECM6711 (pUCP24-VIM-1)): Y (key: X: MIC of less than 1.0 μg/mL; Y: MIC of 1.0 μ/mL or above)
- Carbapenem MIC Alone [6]: Z (MIC of greater than 10 μg/mL)
- Carbapenem MIC Alone [7]: Z (MIC of greater than 10 μg/mL)
- Carbapenem MIC Alone [8]: Z (MIC of greater than 10 μg/mL)
- Carbapenem MIC Alone (KP1014 (VIM-1)): Z (MIC of greater than 10 μg/mL)
- MIC [9]: 1 to 10 µg/mL (≈ 3.34 to 33.4 µM)
- MIC ([9]; Klebsiella aerogenes): > 10 µg/mL
- Carbapenem MIC Alone (EA1019 (SHV-5, VIM-1)): Z (key: X: MIC of less than 1 μg/mL; Y: MIC of 1 μg/mL to 10 μg/mL; Z: MIC of greater than 10 μg/mL)
